# Experimental data published in patent publication US20250230172A1 (Vanqua Bio, Inc., priority 2021, published 2025).
# Biological target: T1, GCase (Homo sapiens, UniProt P04062)
# T1 construct: endogenous in cells; host or cells: HeLa cells
# T1 sequence (P04062 40-536): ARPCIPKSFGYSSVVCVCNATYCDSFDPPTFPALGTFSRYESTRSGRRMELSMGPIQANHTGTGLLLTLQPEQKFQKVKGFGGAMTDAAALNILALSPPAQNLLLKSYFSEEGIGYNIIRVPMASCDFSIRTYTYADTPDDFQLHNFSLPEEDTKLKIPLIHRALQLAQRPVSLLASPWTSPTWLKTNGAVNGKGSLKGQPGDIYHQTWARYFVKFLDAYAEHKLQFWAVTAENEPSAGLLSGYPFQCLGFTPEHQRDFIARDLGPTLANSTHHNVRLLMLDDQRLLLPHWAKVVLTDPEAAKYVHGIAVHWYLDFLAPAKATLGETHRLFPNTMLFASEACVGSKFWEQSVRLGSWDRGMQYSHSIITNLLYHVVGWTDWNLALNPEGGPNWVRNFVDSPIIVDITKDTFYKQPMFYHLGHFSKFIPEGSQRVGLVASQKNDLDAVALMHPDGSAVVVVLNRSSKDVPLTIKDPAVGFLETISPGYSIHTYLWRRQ
# Assay: live cell PFB assay in HELA cells for activation of GCase
# Assay type: cell-based
# Procedure: Exemplary compounds were evaluated for activation of GCase in a live cell PFB assay in HELA cells (essentially as described in Ysselstein et al., “LRRK2 kinase activity regulates lysosomal glucocerebrosidase in neurons derived from Parkinson's disease patients” Nature Communications (2019) 10:5570). […] EC50 ranges: A: <10 μM; B: >10-50 μM; C: >50-100 μM; D: >100 μM.
row,SMILES,EC50 [µM]
1,"FC(F)Cn1ncc2ncc(N[C@H]3C[C@@H]4CN(c5ccnc(C(F)(F)F)n5)C[C@@H]4C3)nc21 [Compound 87, 1-(2,2-difluoroethyl)-N-((3aR,5s,6aS)-2-(2-(trifluoromethyl)pyrimidin-4-yl)octahydrocyclopenta[c]pyrrol-5-yl)-1H-pyrazolo[3,4-b]pyrazin-6-amine]",< 10
2,"FC(F)Cn1ncc2ncc(N[C@H]3C[C@@H]4CN(c5cnc(C(F)(F)F)nc5)C[C@@H]4C3)nc21 [Compound 88, 1-(2,2-difluoroethyl)-N-((3aR,5s,6aS)-2-(2-(trifluoromethyl)pyrimidin-5-yl)octahydrocyclopenta[c]pyrrol-5-yl)-1H-pyrazolo[3,4-b]pyrazin-6-amine]",< 10
3,"FC(F)Cn1ncc2ncc(N[C@H]3C[C@@H]4CN(c5cncnc5C(F)(F)F)C[C@@H]4C3)nc21 [Compound 89, 1-(2,2-difluoroethyl)-N-((3aR,5s,6aS)-2-(4-(trifluoromethyl)pyrimidin-5-yl)octahydrocyclopenta[c]pyrrol-5-yl)-1H-pyrazolo[3,4-b]pyrazin-6-amine]",< 10
4,"FC(F)Cn1ncc2ncc(N[C@H]3C[C@@H]4CN(c5ncncc5C(F)(F)F)C[C@@H]4C3)nc21 [Compound 91, 1-(2,2-difluoroethyl)-N-((3aR,5s,6aS)-2-(5-(trifluoromethyl)pyrimidin-4-yl)octahydrocyclopenta[c]pyrrol-5-yl)-1H-pyrazolo[3,4-b]pyrazin-6-amine]",< 10

# Now from value to molecule:
row,EC50 [µM],SMILES
1,< 10,"FC(F)Cn1ncc2ncc(N[C@H]3C[C@@H]4CN(c5nccc(C(F)(F)F)n5)C[C@@H]4C3)nc21 [Compound 85, 1-(2,2-difluoroethyl)-N-((3aR,5s,6aS)-2-(4-(trifluoromethyl)pyrimidin-2-yl)octahydrocyclopenta[c]pyrrol-5-yl)-1H-pyrazolo[3,4-b]pyrazin-6-amine]"
2,10 to 50,"FC(F)Cn1ncc2ncc(N[C@H]3C[C@@H]4CN(c5ncc(C(F)(F)F)cn5)C[C@@H]4C3)nc21 [Compound 86, 1-(2,2-difluoroethyl)-N-((3aR,5s,6aS)-2-(5-(trifluoromethyl)pyrimidin-2-yl)octahydrocyclopenta[c]pyrrol-5-yl)-1H-pyrazolo[3,4-b]pyrazin-6-amine]"
3,< 10,"FC(F)Cn1ncc2ncc(N[C@H]3C[C@@H]4CN(c5cc(C(F)(F)F)ncn5)C[C@@H]4C3)nc21 [Compound 90, 1-(2,2-difluoroethyl)-N-((3aR,5s,6aS)-2-(6-(trifluoromethyl)pyrimidin-4-yl)octahydrocyclopenta[c]pyrrol-5-yl)-1H-pyrazolo[3,4-b]pyrazin-6-amine]"
